{
  "source": "ChEMBL document CHEMBL5647694",
  "about": "“Novel orally bioavailable EZH1/2 dual inhibitors with greater antitumor efficacy than an EZH2 selective inhibitor” (Cancer Sci, 2017)",
  "key": {"[1]": {"target": "Epithelial discoidin domain-containing receptor 1 (Homo sapiens) (UniProt Q08345)", "assay": "Inhibition of N-terminal GST-fused human DDR1 cytoplasmic domain (444 to 876 residues) expressed in baculovirus-infected Sf21 cells using IRS1 as substrate at 1 uM in presence of ATP by Mobility shift assay"}, "[2]": {"target": "Tyrosine-protein kinase HCK (Homo sapiens) (UniProt P08631)", "assay": "Inhibition of N-terminal GST-fused truncated human HCK (25 to 526 residues) expressed in baculovirus-infected Sf21 cells using Srctide as substrate at 1 uM in presence of ATP by Mobility shift assay"}, "[3]": {"target": "Receptor tyrosine-protein kinase erbB-2 (Homo sapiens) (UniProt P04626)", "assay": "Inhibition of N-terminal His-tagged human HER2 cytoplasmic domain (676 to 1255 residues) expressed in baculovirus-infected Sf21 cells using Srctide as substrate at 1 uM in presence of ATP by Mobility shift assay"}, "[4]": {"target": "Receptor tyrosine-protein kinase erbB-4 (Homo sapiens) (UniProt Q15303)", "sequence (Q15303 whole entry, the tested form may be a part)": "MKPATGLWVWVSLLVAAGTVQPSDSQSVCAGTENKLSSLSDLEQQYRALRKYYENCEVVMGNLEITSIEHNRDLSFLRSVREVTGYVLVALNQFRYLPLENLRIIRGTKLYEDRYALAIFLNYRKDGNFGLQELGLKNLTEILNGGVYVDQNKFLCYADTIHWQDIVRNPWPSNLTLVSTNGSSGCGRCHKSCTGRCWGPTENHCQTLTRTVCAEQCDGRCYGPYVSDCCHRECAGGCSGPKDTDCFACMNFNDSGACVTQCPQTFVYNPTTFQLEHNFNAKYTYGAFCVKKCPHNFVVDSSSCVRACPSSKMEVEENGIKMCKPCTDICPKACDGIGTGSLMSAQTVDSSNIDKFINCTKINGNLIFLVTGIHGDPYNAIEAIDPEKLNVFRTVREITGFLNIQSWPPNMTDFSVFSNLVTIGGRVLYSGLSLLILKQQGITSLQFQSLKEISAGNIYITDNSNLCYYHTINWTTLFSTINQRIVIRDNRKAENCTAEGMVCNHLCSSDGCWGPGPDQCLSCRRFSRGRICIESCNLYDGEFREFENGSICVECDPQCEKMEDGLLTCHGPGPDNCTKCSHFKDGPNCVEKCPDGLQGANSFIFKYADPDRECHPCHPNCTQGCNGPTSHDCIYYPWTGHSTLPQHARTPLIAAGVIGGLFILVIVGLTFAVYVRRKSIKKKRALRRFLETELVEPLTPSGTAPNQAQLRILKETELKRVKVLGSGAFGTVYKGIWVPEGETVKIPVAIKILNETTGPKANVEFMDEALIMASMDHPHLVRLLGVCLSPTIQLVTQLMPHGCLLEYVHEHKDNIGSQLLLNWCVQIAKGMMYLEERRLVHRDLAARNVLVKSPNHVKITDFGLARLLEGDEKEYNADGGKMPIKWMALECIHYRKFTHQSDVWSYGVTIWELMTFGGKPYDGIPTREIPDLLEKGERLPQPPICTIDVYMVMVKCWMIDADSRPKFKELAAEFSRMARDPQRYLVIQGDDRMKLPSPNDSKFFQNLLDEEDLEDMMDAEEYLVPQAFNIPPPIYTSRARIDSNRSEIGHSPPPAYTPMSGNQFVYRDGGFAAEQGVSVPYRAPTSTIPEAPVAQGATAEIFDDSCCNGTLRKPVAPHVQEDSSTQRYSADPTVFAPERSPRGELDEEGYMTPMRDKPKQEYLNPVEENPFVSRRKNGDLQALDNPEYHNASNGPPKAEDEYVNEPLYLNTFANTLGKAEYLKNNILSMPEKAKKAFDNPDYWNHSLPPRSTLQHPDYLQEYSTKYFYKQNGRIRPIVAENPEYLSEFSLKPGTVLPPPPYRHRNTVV", "assay": "Inhibition of N-terminal GST-fused human HER4 cytoplasmic domain (676 to 1308 residues) expressed in baculovirus infected Sf21 cells using Srctide as substrate at 1 uM in presence of ATP by Mobility shift assay"}, "[5]": {"target": "Insulin receptor-related protein (Homo sapiens) (UniProt P14616)", "assay": "Inhibition of N-terminal fused human IRR cytoplasmic domain (953 to 1297 residues) expressed in baculovirus-infected Sf21 cells using IRS1 as substrate at 1 uM in presence of ATP by Mobility shift assay"}, "[6]": {"target": "Tyrosine-protein kinase JAK1 (Homo sapiens) (UniProt P23458)", "assay": "Inhibition of N-terminal GST-fused human JAK1 catalytic domain (850 to 1154 residues) expressed in baculovirus-infected Sf21 cells using JAK1 substrate peptide at 1 uM in presence of ATP by Mobility shift assay"}, "[7]": {"target": "Leukocyte tyrosine kinase receptor (Homo sapiens) (UniProt P29376)", "assay": "Inhibition of N-terminal GST-tagged human LTK catalytic domain (498 to 796 residues) expressed in baculovirus-infected Sf21 cells using Srctide as substrate at 1 uM in presence of ATP by Mobility shift assay"}, "[8]": {"target": "Tyrosine-protein kinase Mer (Homo sapiens) (UniProt Q12866)", "assay": "Inhibition of N-terminal GST-tagged human MER cytoplasmic domain (528 to 999 residues) expressed in baculovirus-infected Sf21 cells using CSKtide as substrate at 1 uM in presence of ATP by Mobility shift assay"}, "[9]": {"target": "Tyrosine-protein kinase receptor TYRO3 (Homo sapiens) (UniProt Q06418)", "assay": "Inhibition of N-terminal GST-tagged human TYRO3 cytoplasmic domain (453 to 890 residues) expressed in baculovirus-infected Sf21 cells using CSKtide as substrate at 1 uM in presence of ATP by Mobility shift assay"}, "[10]": {"target": "Calcium/calmodulin-dependent protein kinase type 1 (Homo sapiens) (UniProt Q14012)", "assay": "Inhibition of N-terminal GST-tagged full length human CAMK1a (1 to 370 residues) expressed in baculovirus-infected Sf21 cells using GS peptide as substrate at 1 uM in presence of ATP by Mobility shift assay"}, "[11]": {"target": "Calcium/calmodulin-dependent protein kinase type II subunit alpha (Homo sapiens) (UniProt Q9UQM7)", "assay": "Inhibition of N-terminal GST-fused full length human CAMK2a (1 to 478 residues) expressed in baculovirus-infected Sf21 cells using GS peptide as substrate at 1 uM in presence of ATP by Mobility shift assay"}, "[12]": {"target": "Citron Rho-interacting kinase (Homo sapiens) (UniProt O14578)", "sequence (O14578 whole entry, the tested form may be a part)": "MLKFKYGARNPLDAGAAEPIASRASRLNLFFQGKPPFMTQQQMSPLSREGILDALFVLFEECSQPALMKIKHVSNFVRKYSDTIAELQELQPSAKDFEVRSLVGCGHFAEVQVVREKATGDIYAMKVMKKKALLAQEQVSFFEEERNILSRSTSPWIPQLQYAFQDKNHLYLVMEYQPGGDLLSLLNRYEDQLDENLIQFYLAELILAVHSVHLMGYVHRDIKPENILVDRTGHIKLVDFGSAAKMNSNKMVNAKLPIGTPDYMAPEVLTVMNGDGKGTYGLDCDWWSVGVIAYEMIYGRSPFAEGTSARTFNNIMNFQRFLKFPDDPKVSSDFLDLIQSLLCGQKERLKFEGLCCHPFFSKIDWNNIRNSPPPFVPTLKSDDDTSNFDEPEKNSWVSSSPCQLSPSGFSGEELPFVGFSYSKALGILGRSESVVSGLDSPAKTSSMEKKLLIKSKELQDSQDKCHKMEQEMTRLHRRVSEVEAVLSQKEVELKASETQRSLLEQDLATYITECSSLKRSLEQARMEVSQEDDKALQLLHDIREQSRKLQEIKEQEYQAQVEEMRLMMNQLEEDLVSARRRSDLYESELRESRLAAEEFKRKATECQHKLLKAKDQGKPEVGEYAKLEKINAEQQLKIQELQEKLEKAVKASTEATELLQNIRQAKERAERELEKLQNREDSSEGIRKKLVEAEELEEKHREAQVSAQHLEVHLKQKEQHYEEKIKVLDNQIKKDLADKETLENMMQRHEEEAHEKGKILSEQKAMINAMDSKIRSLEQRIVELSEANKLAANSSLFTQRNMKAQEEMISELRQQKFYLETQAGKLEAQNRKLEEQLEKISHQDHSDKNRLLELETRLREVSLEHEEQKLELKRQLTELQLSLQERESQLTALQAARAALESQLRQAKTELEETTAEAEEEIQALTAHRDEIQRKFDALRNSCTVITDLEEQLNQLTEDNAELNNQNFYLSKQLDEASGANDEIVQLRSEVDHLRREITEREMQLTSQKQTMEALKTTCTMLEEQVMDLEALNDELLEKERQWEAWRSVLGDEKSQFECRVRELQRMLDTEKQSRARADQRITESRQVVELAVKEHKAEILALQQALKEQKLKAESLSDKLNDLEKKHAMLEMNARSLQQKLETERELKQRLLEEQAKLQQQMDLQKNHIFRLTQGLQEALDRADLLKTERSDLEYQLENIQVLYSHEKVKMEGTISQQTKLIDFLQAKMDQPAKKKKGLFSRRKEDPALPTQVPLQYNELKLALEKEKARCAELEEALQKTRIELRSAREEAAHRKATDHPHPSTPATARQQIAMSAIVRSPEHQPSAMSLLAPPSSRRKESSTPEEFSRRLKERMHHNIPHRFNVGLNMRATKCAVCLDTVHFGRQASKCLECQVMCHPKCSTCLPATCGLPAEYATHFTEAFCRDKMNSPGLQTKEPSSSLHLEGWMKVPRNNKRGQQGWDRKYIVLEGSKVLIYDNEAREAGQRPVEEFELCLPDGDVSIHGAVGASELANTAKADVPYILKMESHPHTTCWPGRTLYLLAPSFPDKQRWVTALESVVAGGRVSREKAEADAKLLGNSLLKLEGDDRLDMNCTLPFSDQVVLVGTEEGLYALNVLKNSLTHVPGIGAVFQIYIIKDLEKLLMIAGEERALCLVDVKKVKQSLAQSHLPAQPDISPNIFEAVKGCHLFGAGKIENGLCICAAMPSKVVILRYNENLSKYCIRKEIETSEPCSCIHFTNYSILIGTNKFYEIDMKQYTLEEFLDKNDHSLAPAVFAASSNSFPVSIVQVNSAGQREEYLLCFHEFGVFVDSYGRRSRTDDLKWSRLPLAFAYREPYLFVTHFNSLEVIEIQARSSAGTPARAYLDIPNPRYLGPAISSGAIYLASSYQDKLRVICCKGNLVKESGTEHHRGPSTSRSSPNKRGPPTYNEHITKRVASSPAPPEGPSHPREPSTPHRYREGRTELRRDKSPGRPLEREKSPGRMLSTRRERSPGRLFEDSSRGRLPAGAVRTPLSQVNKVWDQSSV", "assay": "Inhibition of N-terminal GST-fused human CRIK catalytic domain (1 to 449 residues) expressed in baculovirus expression system using Histone H3 peptide as substrate at 1 uM in presence of ATP by Mobility shift assay"}, "[13]": {"target": "Homeodomain-interacting protein kinase 2 (Homo sapiens) (UniProt Q9H2X6)", "assay": "Inhibition of N-terminal GST-fused full length human HIPK2 (1 to 1198 residues) expressed in baculovirus expression system using DYRKtide-F as substrate at 1 uM in presence of ATP by Mobility shift assay"}, "[14]": {"target": "Homeodomain-interacting protein kinase 3 (Homo sapiens) (UniProt Q9H422)", "assay": "Inhibition of N-terminal GST-fused human HIPK3 catalytic domain (161 to 562 residues) expressed in baculovirus expression system using DYRKtide-F as substrate at 1 uM in presence of ATP by Mobility shift assay"}, "[15]": {"target": "Serine/threonine-protein kinase Nek4 (Homo sapiens) (UniProt P51957)", "assay": "Inhibition of N-terminal GST-tagged full length human NEK4 (1 to 841 residues) expressed in baculovirus expression system using GS peptide as substrate at 1 uM in presence of ATP by Mobility shift assay"}, "[16]": {"target": "Mitogen-activated protein kinase 14 (Homo sapiens) (UniProt Q16539)", "assay": "Inhibition of N-terminal GST-fused truncated human p38alpha (9 to 352 residues) expressed in Escherichia coli expression system using Modified Erktide as substrate at 1 uM in presence of ATP by Mobility shift assay"}, "[17]": {"target": "Serine/threonine-protein kinase PAK 5 (Homo sapiens) (UniProt Q9P286)", "sequence (Q9P286 whole entry, looked up, the tested form may be a part)": "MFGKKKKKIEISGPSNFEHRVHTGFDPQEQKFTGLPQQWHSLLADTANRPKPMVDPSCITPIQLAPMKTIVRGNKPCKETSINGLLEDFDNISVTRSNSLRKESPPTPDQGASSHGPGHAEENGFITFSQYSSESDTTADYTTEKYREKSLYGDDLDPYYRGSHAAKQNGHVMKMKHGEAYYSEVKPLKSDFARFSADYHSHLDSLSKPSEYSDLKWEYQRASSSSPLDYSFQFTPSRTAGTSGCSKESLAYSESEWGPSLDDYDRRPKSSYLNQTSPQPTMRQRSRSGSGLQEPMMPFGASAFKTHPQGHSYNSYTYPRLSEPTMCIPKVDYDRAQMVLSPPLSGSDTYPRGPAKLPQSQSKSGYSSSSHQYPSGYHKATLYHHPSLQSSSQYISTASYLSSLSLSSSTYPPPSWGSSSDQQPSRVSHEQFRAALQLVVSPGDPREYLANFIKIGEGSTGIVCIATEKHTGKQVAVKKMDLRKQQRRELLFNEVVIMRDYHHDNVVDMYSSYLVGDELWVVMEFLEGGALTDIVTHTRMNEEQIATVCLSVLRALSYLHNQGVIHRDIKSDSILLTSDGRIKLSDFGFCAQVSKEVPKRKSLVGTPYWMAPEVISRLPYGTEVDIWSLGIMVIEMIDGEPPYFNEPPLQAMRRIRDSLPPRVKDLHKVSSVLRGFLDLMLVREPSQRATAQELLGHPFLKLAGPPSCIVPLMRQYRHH", "assay": "Inhibition of N-terminal GST-fused human PAK5 catalytic domain (425 to 719 residues) expressed in baculovirus expression system using DAPK1tide as substrate at 1 uM in presence of ATP by Mobility shift assay"}, "[18]": {"target": "cAMP-dependent protein kinase catalytic subunit gamma (Homo sapiens) (UniProt P22612)", "assay": "Inhibition of N-terminal GST-tagged full length human PKACgamma (1 to 351 residues) expressed in baculovirus expression system using Kemptide as substrate at 1 uM in presence of ATP by Mobility shift assay"}, "[19]": {"target": "Rho-associated protein kinase 2 (Homo sapiens) (UniProt O75116)", "assay": "Inhibition of N-terminal GST-fused human ROCK2 catalytic domain (1 to 553 residues) expressed in baculovirus expression system using LIMKtide as substrate at 1 uM in presence of ATP by Mobility shift assay"}, "[20]": {"target": "SRSF protein kinase 2 (Homo sapiens) (UniProt P78362)", "sequence (P78362 whole entry, looked up, the tested form may be a part)": "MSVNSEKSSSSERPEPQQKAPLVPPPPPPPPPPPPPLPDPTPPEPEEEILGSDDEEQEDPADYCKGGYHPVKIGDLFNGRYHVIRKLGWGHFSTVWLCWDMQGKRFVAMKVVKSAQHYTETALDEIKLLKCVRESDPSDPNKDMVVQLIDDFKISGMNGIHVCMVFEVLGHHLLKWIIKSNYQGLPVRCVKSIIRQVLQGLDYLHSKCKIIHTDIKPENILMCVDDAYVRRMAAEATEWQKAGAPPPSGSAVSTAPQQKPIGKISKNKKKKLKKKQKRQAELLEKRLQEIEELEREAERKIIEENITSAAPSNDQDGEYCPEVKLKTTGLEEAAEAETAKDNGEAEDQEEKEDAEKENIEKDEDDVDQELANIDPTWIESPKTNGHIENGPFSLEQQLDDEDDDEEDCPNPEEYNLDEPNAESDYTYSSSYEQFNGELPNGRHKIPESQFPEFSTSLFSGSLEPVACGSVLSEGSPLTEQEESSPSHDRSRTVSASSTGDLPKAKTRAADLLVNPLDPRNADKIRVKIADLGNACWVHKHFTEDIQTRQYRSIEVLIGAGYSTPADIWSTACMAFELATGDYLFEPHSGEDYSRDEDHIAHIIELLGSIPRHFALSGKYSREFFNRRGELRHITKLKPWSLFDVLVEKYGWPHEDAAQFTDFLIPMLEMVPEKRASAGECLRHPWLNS", "assay": "Inhibition of N-terminal GST-fused full length human SRPK2 (1 to 688 residues) expressed in baculovirus expression system using DYRKtide-F as substrate at 1 uM in presence of ATP by Mobility shift assay"}, "[21]": {"target": "Testis-specific serine/threonine-protein kinase 2 (Homo sapiens) (UniProt Q96PF2)", "sequence (Q96PF2 whole entry, the tested form may be a part)": "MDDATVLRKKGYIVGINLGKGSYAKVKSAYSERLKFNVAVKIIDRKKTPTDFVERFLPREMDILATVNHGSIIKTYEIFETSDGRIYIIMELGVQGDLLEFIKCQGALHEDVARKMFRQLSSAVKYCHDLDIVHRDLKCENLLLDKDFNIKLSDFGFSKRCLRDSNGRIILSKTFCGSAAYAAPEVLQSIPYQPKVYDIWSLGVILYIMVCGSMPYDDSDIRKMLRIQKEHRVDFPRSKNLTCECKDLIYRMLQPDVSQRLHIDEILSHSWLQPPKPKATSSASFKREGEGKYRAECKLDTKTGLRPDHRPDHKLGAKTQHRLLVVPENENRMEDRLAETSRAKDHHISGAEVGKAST", "assay": "Inhibition of N-terminal GST-fused full length human TSSK2 (1 to 358 residues) expressed in baculovirus expression system using GS peptide as substrate at 1 uM in presence of ATP by Mobility shift assay"}, "[22]": {"target": "Sphingosine kinase 2 (Homo sapiens) (UniProt Q9NRA0)", "assay": "Inhibition of N-terminal GST-fused full length human SPHK2 (1 to 618 residues) expressed in baculovirus expression system using Sphingosine as substrate at 1 uM in presence of ATP by Mobility shift assay"}},
  "data": [
    {"smiles": "Cc1cc(C)c(CNC(=O)c2cc(Br)c3c(c2C)O[C@@](C)([C@H]2CC[C@H](N(C)C)CC2)O3)c(=O)[nH]1", "values": [
      {"measurement": "inhibition", "setting": "[1]", "result": -3.3, "unit": "%"},
      {"measurement": "inhibition", "setting": "[2]", "result": -2.5, "unit": "%"},
      {"measurement": "inhibition", "setting": "[3]", "result": 6, "unit": "%"},
      {"measurement": "inhibition", "setting": "[4]", "result": 2.6, "unit": "%"},
      {"measurement": "inhibition", "setting": "[5]", "result": -8.8, "unit": "%"},
      {"measurement": "inhibition", "setting": "[6]", "result": -3.3, "unit": "%"},
      {"measurement": "inhibition", "setting": "[7]", "result": -3.2, "unit": "%"},
      {"measurement": "inhibition", "setting": "[8]", "result": -1.5, "unit": "%"},
      {"measurement": "inhibition", "setting": "[9]", "result": 0.9, "unit": "%"},
      {"measurement": "inhibition", "setting": "[10]", "result": 0.2, "unit": "%"},
      {"measurement": "inhibition", "setting": "[11]", "result": -1.1, "unit": "%"},
      {"measurement": "inhibition", "setting": "[12]", "result": -7.4, "unit": "%"},
      {"measurement": "inhibition", "setting": "[13]", "result": -1.4, "unit": "%"},
      {"measurement": "inhibition", "setting": "[14]", "result": -1.8, "unit": "%"},
      {"measurement": "inhibition", "setting": "[15]", "result": -2, "unit": "%"},
      {"measurement": "inhibition", "setting": "[16]", "result": -7.2, "unit": "%"},
      {"measurement": "inhibition", "setting": "[17]", "result": -4.3, "unit": "%"},
      {"measurement": "inhibition", "setting": "[18]", "result": -1.4, "unit": "%"},
      {"measurement": "inhibition", "setting": "[19]", "result": 2.2, "unit": "%"},
      {"measurement": "inhibition", "setting": "[20]", "result": -1.6, "unit": "%"},
      {"measurement": "inhibition", "setting": "[21]", "result": -2.5, "unit": "%"},
      {"measurement": "inhibition", "setting": "[22]", "result": 12.7, "unit": "%"}
    ]},
    {"smiles": "Cc1cc(C)c(CNC(=O)c2cc(Cl)c3c(c2C)O[C@@](C)([C@H]2CC[C@H](N(C)C)CC2)O3)c(=O)[nH]1", "note": "[VALEMETOSTAT]", "values": [
      {"measurement": "inhibition", "setting": "[1]", "result": -3.7, "unit": "%"},
      {"measurement": "inhibition", "setting": "[2]", "result": -4.2, "unit": "%"},
      {"measurement": "inhibition", "setting": "[3]", "result": 5.6, "unit": "%"},
      {"measurement": "inhibition", "setting": "[4]", "result": -0.2, "unit": "%"},
      {"measurement": "inhibition", "setting": "[5]", "result": -4.6, "unit": "%"},
      {"measurement": "inhibition", "setting": "[6]", "result": -3.3, "unit": "%"},
      {"measurement": "inhibition", "setting": "[7]", "result": 0.1, "unit": "%"},
      {"measurement": "inhibition", "setting": "[8]", "result": -1.6, "unit": "%"},
      {"measurement": "inhibition", "setting": "[9]", "result": -2.6, "unit": "%"},
      {"measurement": "inhibition", "setting": "[10]", "result": -2.8, "unit": "%"},
      {"measurement": "inhibition", "setting": "[11]", "result": -2.8, "unit": "%"},
      {"measurement": "inhibition", "setting": "[12]", "result": -5, "unit": "%"},
      {"measurement": "inhibition", "setting": "[13]", "result": 3.1, "unit": "%"},
      {"measurement": "inhibition", "setting": "[14]", "result": 1.4, "unit": "%"},
      {"measurement": "inhibition", "setting": "[15]", "result": -2.9, "unit": "%"},
      {"measurement": "inhibition", "setting": "[16]", "result": -8, "unit": "%"},
      {"measurement": "inhibition", "setting": "[17]", "result": -3.9, "unit": "%"},
      {"measurement": "inhibition", "setting": "[18]", "result": -2.4, "unit": "%"},
      {"measurement": "inhibition", "setting": "[19]", "result": 3.3, "unit": "%"},
      {"measurement": "inhibition", "setting": "[20]", "result": 0, "unit": "%"},
      {"measurement": "inhibition", "setting": "[21]", "result": -3.3, "unit": "%"},
      {"measurement": "inhibition", "setting": "[22]", "result": 8, "unit": "%"}
    ]}
  ]
}
